Holding throughout (format): cell-based
Assay [1] has as its system MDA-MB-231 cells. The assay is described as follows: Inhibition of the proliferation of MDA-MB-231 cells by compounds of formula IA (14C-thymidine pulse at 96 h). The note with it: Homo sapiens; MDA-MB-231, 3 days culture, 14C-thymidine incorporation at 96 h; read-out: Inhibition of the proliferation (14C-thymidine pulse at 96 h) IC50 MDA-MB231. The method, then: (§1) Evaluation of the Inhibition of the Proliferation of the MDA-MB-231, MDA-A1 and HCT116 Cell Lines by the Compounds of Formula IA with ZbRb=−OMe and Y═Y′=−OMe
(§2) The MDA-MB-231, MDA-A1 or HCT116 cells in their exponential growth phase are trypsinized and resuspended in their respective culture medium (DMEM/F12 Gibco #21331, 10% FCS Gibco #10500-056, […] Gibco #25030 for the MDA cells; DMEM Gibco #11960, 10% FCS Gibco #10500-056, 2 mM glutamine Gibco #25030 for the HCT116 cells). The cell suspension is seeded in Cytostar 96-well culture plates (GE Healthcare Europe, #RPNQ0163) in the complete culture medium containing serum at a density of 5000 cells/well (MDA-MB-231, MDA-A1, HCT116). After incubation for 4 hours, successive dilutions of the tomaymycin dimers are added to the wells in triplicate for each concentration. The cells are cultured for 3 days at 37° C. under an atmosphere containing 5% CO2 in the presence of the cytotoxic agents. On the 4th day, 10 μl of a ^14C-thymidine solution (0.1 μCi/well, Perkin Elmer #NEC56825000) are added to each well. The incorporation of ^14C-thymidine is measured 96 hours after the start of the experiment using a MicroBeta radioactivity counter (Perkin Elmer). The data are expressed in the form of a % of survival by determining the ratio between the count obtained with the cells treated with the cytotoxic agent and the count obtained with the cells of the control wells (treated with the culture medium alone).

Assay [2] concerns MDA-A1 cells. The experiment in a line: Inhibition of the proliferation of MDA-A1 cells by compounds of formula IA (14C-thymidine pulse at 96 h). To be noted: MDA-A1, 3 days culture, 14C-thymidine incorporation at 96 h. How it is done: as §1, §2
In general terms: Uptake of a labelled nucleoside into DNA is a usual measure of proliferation.

The test system of assay [3] is HCT116 cells. The assay is described as follows: Inhibition of the proliferation of HCT116 cells by compounds of formula IA (14C-thymidine pulse at 96 h). To be noted: Homo sapiens, HCT-116; HCT116, 3 days culture, 14C-thymidine incorporation at 96 h. The method, then: as §1, §2

Bounds are passed on as bounds.

`C/C=C1\C[C@H]2C=Nc3cc(OCc4cc(OCCN(C)CC(C)(C)SCC(=O)NCCOCCOCCOCCOCCC(=O)OC)cc(COc5cc6c(cc5OC)C(=O)N5C/C(=C/C)C[C@H]5C=N6)n4)c(OC)cc3C(=O)N2C1`: the IC50 in assay [1] was 0.009 nM; in assay [2], 1.99 nM; in assay [3], 0.03 nM.

Take `C/C=C1\C[C@H]2C=Nc3cc(OCc4cc(OCCN(C)CC(C)(C)SCC(=O)N(C)CCOCCOCCOCCOCCC(=O)OC)cc(COc5cc6c(cc5OC)C(=O)N5C/C(=C/C)C[C@H]5C=N6)n4)c(OC)cc3C(=O)N2C1`: the results for the IC50 in assay [1], in assay [2] and in assay [3] were 0.07 nM, 2.26 nM and 0.12 nM, respectively.

Take `C/C=C1\C[C@H]2C=Nc3cc(OCc4cc(COc5cc6c(cc5OC)C(=O)N5C/C(=C/C)C[C@H]5C=N6)cc(C(C)(C)SCC(=O)NCCOCCOCCOCCOCCC(=O)OC)c4)c(OC)cc3C(=O)N2C1`: the figures for the IC50 in assay [1], in assay [2] and in assay [3] were 0.084 nM, more than 10 nM and 0.127 nM, respectively.

For the compound `C/C=C1\C[C@H]2C=Nc3cc(OCc4cc(OCCN5CCN(C(=O)CCC(C)(C)SCC(=O)NCCOCCOCCOCCOC(=O)OC)CC5)cc(COc5cc6c(cc5OC)C(=O)N5C/C(=C/C)C[C@H]5C=N6)n4)c(OC)cc3C(=O)N2C1`, the IC50 was 0.45 nM in assay [1], more than 10 nM in assay [2] and 1.25 nM in assay [3].

Values taken from patent US8481042B2, “Conjugates of pyrrolo[1,4]benzodiazepine dimers as anticancer agents” (priority 2009, dated 2013).
